According to US9023821B2, “Use of MicroRNA for treating diseases associated with a dysfunction of the cilia in multiciliated epithelial cells” (Centre National de la Recherche Scientifique, priority 2009, dated 2015):

Key:
[1] = tested on: human airway epithelial cells (HAECs); experiment: High-throughput sequencing (HTS) of miRNAs at four stages of differentiation of HAECs; conditions: for Modulation (ratio of the level of intensity of expression in log2 in two stages of differentiation) measured by high-throughput sequencing, D7 − D0 / Modulation (ratio of the level of intensity of expression in log2 in two stages of differentiation) measured by high-throughput sequencing, FC − D7 / Modulation (ratio of the level of intensity of expression in log2 in two stages of differentiation) measured by high-throughput sequencing, WD − D0 / Modulation (ratio of the level of intensity of expression in log2 in two stages of differentiation) measured by high-throughput sequencing, WD − FC / Level of intensity of expression in log2 measured by high-throughput sequencing, D0 / Level of intensity of expression in log2 measured by high-throughput sequencing, D7 / Level of intensity of expression in log2 measured by high-throughput sequencing, FC / Level of intensity of expression in log2 measured by high-throughput sequencing, WD: Table VI; for Abundance (%), D0: ALI-D0; for Abundance (%), D7: ALI-D7; for Abundance (%), FC: ALI-FC; for Abundance (%), WD: ALI-WD; for Level of intensity of expression in log2 At the differentiated stage (WD) measured in HTS: healthy human airway epithelial tissue; for Level of intensity of expression in log2 measured by high-throughput sequencing, D0: stage D0; for Level of intensity of expression in log2 measured by high-throughput sequencing, D7: stage D7; for Level of intensity of expression in log2 measured by high-throughput sequencing, FC: stage FC; for Level of intensity of expression in log2 At the differentiated stage (WD) measured in HTS / Level of intensity of expression in log2 measured by high-throughput sequencing, WD: stage WD
In short: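 Cells at four air-liquid interface differentiation stages were lysed and total RNA with miRNAs purified. Adaptor Mix A or B ligation (16° C, 2-16 h) allowed 5′ or 3′ end sequencing. Abundance cut-off was 1% of total miRNAs in at least one stage.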

[2] = tested on: human airway epithelial cells (HAECs); experiment: Agilent miRNA chips, miRNA expression at four stages of differentiation of HAECs; conditions: Table VI; for Level of intensity of expression in log2 measured with the Agilent chips, D0: stage D0; for Level of intensity of expression in log2 measured with the Agilent chips, D7: stage D7; for Level of intensity of expression in log2 measured with the Agilent chips, FC: stage FC; for Level of intensity of expression in log2 measured with the Agilent chips, WD: stage WD
In short: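 To benchmark sequencing, the microRNAome was also profiled by hybridizing labelled RNA from identical patient samples to v2 arrays with miRBase v.12.0 human content (866 miRNAs) and 89 viral miRNAs.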

[3] = tested on: basal cells and pyramidal cells of the airway epithelium; experiment: miRNA expression in sorted basal cells versus pyramidal cells (ciliated + secretory), HTS and Agilent chips; design: species or system human; conditions: for Modulation of expression of the miRNAs in pyramidal cells (323(−)) relative to basal cells 323(+): HTS and Agilent chips; for Intensity of the level of expression in log2 in pyramidal cells (323(−)): pyramidal cells (ciliated + secretory)
In short: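 Read-out is miRNA profiling of total RNA, by Agilent chips or by high-throughput sequencing, in two sorted populations. These were basal cells (CD151+/TF+) and pyramidal ciliated/secretory cells (CD151−/TF−) from airway epithelium of 3 donors.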

In the case of “hsa-miR-140-3p: human miRNA, SEQ ID No. 5 (UACCACAGGGUAGAACCACGG; expressed or natural sequence; listed as Homo sapiens)”, the “Modulation (ratio of the level of intensity of expression in log2 in two stages of differentiation) measured by high-throughput sequencing, D7 − D0” value [1] is reported as 0.33 log2, the “Modulation (ratio of the level of intensity of expression in log2 in two stages of differentiation) measured by high-throughput sequencing, FC − D7” value [1] is reported as 0.37 log2 and the “Modulation (ratio of the level of intensity of expression in log2 in two stages of differentiation), D7 − D0” value ([1]; HTS) is reported as 0.33 log2. For the same substance, the “Modulation (ratio of the level of intensity of expression in log2 in two stages of differentiation), FC − D7” value ([1]; HTS) was 0.37 log2, the “Modulation (ratio of the level of intensity of expression in log2 in two stages of differentiation), WD − FC” value ([1]; HTS) was 0.04 log2 and the “Abundance (%), D0” value ([1]; HTS) was 1.17%. For the same substance, the “Abundance (%), D7” value ([1]; HTS) was 1.48%, the “Abundance (%), FC” value ([1]; HTS) was 1.85% and the “Abundance (%), WD” value ([1]; HTS) was 1.44%. The “Modulation (ratio of the level of intensity of expression in log2 in two stages of differentiation) measured by high-throughput sequencing, WD − D0” value [1] was 0.73 log2, the “Modulation (ratio of the level of intensity of expression in log2 in two stages of differentiation) measured by high-throughput sequencing, WD − FC” value [1] was 0.04 log2 and the “Level of intensity of expression in log2 At the differentiated stage (WD) measured in HTS” value [1] was 13.12 log2. The “Level of intensity of expression in log2 measured by high-throughput sequencing, D0” value [1] was 12.39 log2, the “Level of intensity of expression in log2 measured by high-throughput sequencing, D7” value [1] was 12.72 log2 and the “Level of intensity of expression in log2 measured by high-throughput sequencing, FC” value [1] was 13.08 log2. The “Level of intensity of expression in log2 measured by high-throughput sequencing, WD” value [1] was 13.12 log2, the “Modulation (ratio of the level of intensity of expression in log2 in two stages of differentiation) measured with the Agilent chips, D7 − D0” value [2] was 1.54 log2 and the “Modulation (ratio of the level of intensity of expression in log2 in two stages of differentiation) measured with the Agilent chips, FC − D7” value [2] was −0.08 log2. The “Modulation (ratio of the level of intensity of expression in log2 in two stages of differentiation) measured with the Agilent chips, WD − D0” value [2] was 1.52 log2, the “Modulation (ratio of the level of intensity of expression in log2 in two stages of differentiation) measured with the Agilent chips, WD − FC” value [2] was 0.06 log2 and the “Level of intensity of expression in log2 measured with the Agilent chips, D0” value [2] was 3.55 log2. For the same substance, the “Level of intensity of expression in log2 measured with the Agilent chips, D7” value [2] was 5.09 log2, the “Level of intensity of expression in log2 measured with the Agilent chips, FC” value [2] was 5.01 log2 and the “Level of intensity of expression in log2 measured with the Agilent chips, WD” value [2] was 5.07 log2. For the same substance, the “Modulation of expression of the miRNAs in pyramidal cells (323(−)) relative to basal cells 323(+)” value [3] was 0.91, the “Intensity of the level of expression in log2 in basal cells (323(+))” value [3] was 2.75 log2 and the “Intensity of the level of expression in log2 in pyramidal cells (323(−))” value [3] was 3.66 log2.

For “hsa-miR-203: human miRNA, SEQ ID No. 19 (GUGAAAUGUUUAGGACCACUAG; expressed or natural sequence; listed as Homo sapiens)”, the “Modulation (ratio of the level of intensity of expression in log2 in two stages of differentiation) measured by high-throughput sequencing, D7 − D0” value [1] was 0.11 log2, the “Modulation (ratio of the level of intensity of expression in log2 in two stages of differentiation) measured by high-throughput sequencing, FC − D7” value [1] was −0.21 log2 and the “Modulation (ratio of the level of intensity of expression in log2 in two stages of differentiation), D7 − D0” value ([1]; HTS) was 0.11 log2. For the same substance, the “Modulation (ratio of the level of intensity of expression in log2 in two stages of differentiation), FC − D7” value ([1]; HTS) was −0.21 log2, the “Modulation (ratio of the level of intensity of expression in log2 in two stages of differentiation), WD − FC” value ([1]; HTS) was 1.18 log2 and the “Abundance (%), D0” value ([1]; HTS) was 2.53%. The “Level of intensity of expression in log2, D0” value ([1]; HTS, ALI-D0 (proliferation)) was 13.49 log2, the “Abundance (%), D7” value ([1]; HTS) was 2.73% and the “Abundance (%), FC” value ([1]; HTS) was 2.29%. The “Abundance (%), WD” value ([1]; HTS) was 3.92%, the “Modulation (ratio of the level of intensity of expression in log2 in two stages of differentiation) measured by high-throughput sequencing, WD − D0” value [1] was 1.08 log2 and the “Modulation (ratio of the level of intensity of expression in log2 in two stages of differentiation) measured by high-throughput sequencing, WD − FC” value [1] was 1.18 log2. The “Level of intensity of expression in log2 At the differentiated stage (WD) measured in HTS” value [1] was 14.55 log2, the “Level of intensity of expression in log2 measured by high-throughput sequencing, D0” value [1] was 13.50 log2 and the “Level of intensity of expression in log2 measured by high-throughput sequencing, D7” value [1] was 13.60 log2. The “Level of intensity of expression in log2 measured by high-throughput sequencing, FC” value [1] was 13.39 log2, the “Level of intensity of expression in log2 measured by high-throughput sequencing, WD” value [1] was 14.57 log2 and the “Modulation (ratio of the level of intensity of expression in log2 in two stages of differentiation) measured with the Agilent chips, D7 − D0” value [2] was 0.97 log2. The “Modulation (ratio of the level of intensity of expression in log2 in two stages of differentiation) measured with the Agilent chips, FC − D7” value [2] was −0.67 log2, the “Modulation (ratio of the level of intensity of expression in log2 in two stages of differentiation) measured with the Agilent chips, WD − D0” value [2] was 0.44 log2 and the “Modulation (ratio of the level of intensity of expression in log2 in two stages of differentiation) measured with the Agilent chips, WD − FC” value [2] was 0.13 log2. For the same substance, the “Level of intensity of expression in log2 measured with the Agilent chips, D0” value [2] was 10.64 log2, the “Level of intensity of expression in log2 measured with the Agilent chips, D7” value [2] was 11.61 log2 and the “Level of intensity of expression in log2 measured with the Agilent chips, FC” value [2] was 10.95 log2. The “Level of intensity of expression in log2 measured with the Agilent chips, WD” value [2] was 11.08 log2, the “Modulation of expression of the miRNAs in pyramidal cells (323(−)) relative to basal cells 323(+)” value [3] was −3.50 and the “Intensity of the level of expression in log2 in basal cells (323(+))” value [3] was 3.64 log2. For the same substance, the “Intensity of the level of expression in log2 in pyramidal cells (323(−))” value [3] was 0.14 log2.
